Reference: PMC10107299, “Neutralizing the Impact of the Virulence Factor LecA from Pseudomonas aeruginosa on Human Cells with New Glycomimetic Inhibitors” (Angewandte Chemie (International Ed. in English), 2023)
Where two headings read alike, the source gives them in different places.

Assays:
LecA [1] = target: T1, LecA (Pseudomonas aeruginosa, UniProt Q05097); assay: Competitive binding assay based on fluorescence polarization
T1 construct: made in house
Protocol: All synthesized galactosides were then evaluated for LecA inhibition using a competitive binding assay based on fluorescence polarization (Figure S1).[24]
Expression and purification of LecA as well as competitive binding by fluorescence polarization was performed as described by Joachim et al..[9] The assay was performed in TBS/Ca2+ buffer (20 mM Tris, 137 mM NaCl, 2.6 mM KCl at pH 7.4 supplemented with 1 mM CaCl2) in presence of 25% DMSO. Averages and standard deviations were calculated from at least three independent experiments. […]
RR OR In h i b i to r [µ M ]
R R In h i b i to r [µ M ] […]
R In h i b i to r [µ M ] 30 L2
30 F2 40 K2 In h i b i to r [µ M ] […]
In h i b i to r [µ M ] In h i b i to r [µ M ]
Figure S1: Evaluation of amide divalent LecA ligands in a competitive binding assay based on fluorescence […]
representative experiment is shown or each series. Averages and standard deviations from at least three independent titrations of triplicates each.
[…] Fluorescence polarization [mP] -1 0 1 2 3 0 1001010 Me-α-Gal pNO2-Ph-β-Gal 1000 Inhibitor [µM] Fluorescence polarization [mP])

LecA [2] = target: T1, LecA; assay: Direct binding to immobilized LecA by surface plasmon resonance (SPR); conditions: for kon: SPR single-cycle kinetics, 25 °C, N=3 (I1 N=1); for Relative potency r.p. (SPR): compared to respective monovalent compound in each series
Protocol: K d values were oscillating with the number of methylene units present in the linker, presumably linked to the zig‐zag geometry of the hydrocarbon chain.
Expression and purification of LecA as well as competitive binding by fluorescence polarization was performed as described by Joachim et al..[9] […]
Surface plasmon resonance experiments were performed on a BIACORE X100 instrument (GE Healthcare) at 25 °C as described by Zahorska et. al..[8] Averages and standard deviations were calculated from three independent experiments. […]
Figure S3: SPR of divalent LecA ligands from benzene series. Sensorgrams obtained from SPR single-cycle kinetics experiments. Five different concentrations of each compound (0, 10, 50, 100, 200 nM) were sequentially injected to obtain the experimental sensorgrams (blue lines), which were then fitted by a 1:1 model (orange) on BIACORE evaluation software. […]
Figure S4: SPR of divalent LecA ligands from pyridine and sulfonated series. Sensorgrams obtained from SPR single-cycle kinetics experiments. Five different concentrations of each compound (0, 10, 50, 100, 200 nM) were sequentially injected to obtain the experimental sensorgrams (blue lines), which were then fitted by a 1:1 model (orange) on BIACORE evaluation software.
(also on this page, place not known: Response (RU)0 Response (RU)0 Response (RU) Response (RU) Response (RU) Response (RU) 030060090012001500) […]

T1 sequence (Q05097 whole entry): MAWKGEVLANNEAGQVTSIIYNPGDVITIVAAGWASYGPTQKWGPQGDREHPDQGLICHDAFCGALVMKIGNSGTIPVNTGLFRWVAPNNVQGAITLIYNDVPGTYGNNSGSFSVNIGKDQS

SMILES	IC50 (LecA [1])	Kd (LecA [2])	koff (LecA [2])	kon (LecA [2])	Relative potency r.p. (SPR) (LecA [2])	IC50 (LecA [1]; TBS/Ca2+ buffer, 25% DMSO, divalent ligands at lower assay limit, read-out: IC50 (LecA competitive binding, fluorescence polarization))
O=C(/C=C/c1ccc(O[C@@H]2O[C@H](CO)[C@H](O)[C@H](O)[C@H]2O)cc1)Nc1ccc(OCCCCOc2ccc(NC(=O)/C=C/c3ccc(O[C@@H]4O[C@H](CO)[C@H](O)[C@H](O)[C@H]4O)cc3)cc2)cc1 [Compound F1]	7.9 ± 4.8 µM	2250 ± 300 nM	0.00388 ± 0.00043 s⁻¹	1.75 ± 0.3 x10^3/Ms	2	
COc1ccc(NC(=O)/C=C/c2ccc(O[C@@H]3O[C@H](CO)[C@H](O)[C@H](O)[C@H]3O)cc2)cc1 [Compound A1]	18.8 ± 6.6 µM	5210 ± 600 nM			1	
COc1ccc(NC(=O)CCc2ccc(O[C@@H]3O[C@H](CO)[C@H](O)[C@H](O)[C@H]3O)cc2)cc1 [Compound A2]	18.9 ± 5.5 µM	5380 ± 90 nM			1	
O=C(CCc1ccc(O[C@@H]2O[C@H](CO)[C@H](O)[C@H](O)[C@H]2O)cc1)Nc1ccc(OCCCCOc2ccc(NC(=O)CCc3ccc(O[C@@H]4O[C@H](CO)[C@H](O)[C@H](O)[C@H]4O)cc3)cc2)cc1 [Compound F2]	4.4 ± 1.5 µM	23.1 ± 11 nM	0.00366 ± 0.00042 s⁻¹	175 ± 55 x10^3/Ms	233	
O=C(/C=C/c1ccc(O[C@@H]2O[C@H](CO)[C@H](O)[C@H](O)[C@H]2O)cc1)Nc1ccc(OCOc2ccc(NC(=O)/C=C/c3ccc(O[C@@H]4O[C@H](CO)[C@H](O)[C@H](O)[C@H]4O)cc3)cc2)cc1 [Compound C1]	4.7 ± 2.6 µM	37.7 ± 11 nM	0.00379 ± 0.00089 s⁻¹	110 ± 52 x10^3/Ms	138	
O=C(/C=C/c1ccc(O[C@@H]2O[C@H](CO)[C@H](O)[C@H](O)[C@H]2O)cc1)Nc1ccc(Oc2ccc(NC(=O)/C=C/c3ccc(O[C@@H]4O[C@H](CO)[C@H](O)[C@H](O)[C@H]4O)cc3)cc2)cc1 [Compound B1]	6.6 ± 1.5 µM	67.3 ± 9.4 nM	0.00596 ± 0.00206 s⁻¹	89 ± 29 x10^3/Ms	77	
O=C(/C=C/c1ccc(O[C@@H]2O[C@H](CO)[C@H](O)[C@H](O)[C@H]2O)cc1)Nc1ccc(OCCCOc2ccc(NC(=O)/C=C/c3ccc(O[C@@H]4O[C@H](CO)[C@H](O)[C@H](O)[C@H]4O)cc3)cn2)nc1 [Compound I1]	6.6 ± 4 µM	40.2 nM	0.00227 s⁻¹	68200 M⁻¹ s⁻¹	74	
O=C(CCc1ccc(O[C@@H]2O[C@H](CO)[C@H](O)[C@H](O)[C@H]2O)cc1)Nc1ccc(OCCCOc2ccc(NC(=O)CCc3ccc(O[C@@H]4O[C@H](CO)[C@H](O)[C@H](O)[C@H]4O)cc3)cc2)cc1 [Compound E2]	3.5 ± 1 µM	18.5 ± 1.5 nM	0.00345 ± 0.00013 s⁻¹	187 ± 13 x10^3/Ms	291	
O=C(CCc1ccc(O[C@@H]2O[C@H](CO)[C@H](O)[C@H](O)[C@H]2O)cc1)Nc1ccc(Oc2ccc(NC(=O)CCc3ccc(O[C@@H]4O[C@H](CO)[C@H](O)[C@H](O)[C@H]4O)cc3)cc2)cc1 [Compound B2]	3.6 ± 1.3 µM	22.1 ± 0.3 nM	0.00349 ± 8e-05 s⁻¹	158 ± 5.7 x10^3/Ms	244	
O=C(CCc1ccc(O[C@@H]2O[C@H](CO)[C@H](O)[C@H](O)[C@H]2O)cc1)Nc1ccc(OCOc2ccc(NC(=O)CCc3ccc(O[C@@H]4O[C@H](CO)[C@H](O)[C@H](O)[C@H]4O)cc3)cc2)cc1 [Compound C2]	4.2 ± 1.7 µM	15.3 ± 0.6 nM	0.00462 ± 0.0002 s⁻¹	303 ± 20 x10^3/Ms	352	
O=[N+]([O-])c1ccc(O[C@@H]2O[C@H](CO)[C@H](O)[C@H](O)[C@H]2O)cc1 [pNO2-Ph-β-Gal, reference compound]						39.8 ± 12 µM
O=C(/C=C/c1ccc(O[C@@H]2O[C@H](CO)[C@H](O)[C@H](O)[C@H]2O)cc1)Nc1ccc(OCCCOc2ccc(NC(=O)/C=C/c3ccc(O[C@@H]4O[C@H](CO)[C@H](O)[C@H](O)[C@H]4O)cc3)cc2)cc1 [Compound E1]	4.5 ± 1.6 µM	156 ± 38 nM	0.00251 ± 0.00022 s⁻¹	16.9 ± 5.2 x10^3/Ms	33	
